One assay has as its target T1, TAS2R5 (Homo sapiens, UniProt Q9NYW4).
T1 construct: first 45 amino acids of rat somatostatin type 3 receptor (SSTR3) export tag (N); expressed in transfected cells; host or cells: HEK293E
Put plainly: Calcium mobilization functional assay, TAS2R5. Format: cell-based. The note with it: 1 mM, versus empty pcDNA vector. From the text: (§1) All constructs were confirmed by DNA sequencing.
(§2) Data from single dose experiments were collected as duplicates. […] Data represent mean ± SD.
(Calcium flux is commonly read through the fluorescence of an indicator in the cells.)

A further assay deals with TRPA1 receptor/channels. Set-up: method as in PMID 21248124. The note with it: cited from earlier work.
The subject of the next assay is 25 human TAS2Rs. Put plainly: Single dose scanning of phenolic compounds on the 25 bitter taste receptors (calcium mobilization, HEK293E). The format is cell-based. The following applies: single dose 300 µM, 25 TAS2Rs, N = 2. The procedure: as §1, §2
(§3) To characterize the bitterness of olive oil phenolic compounds, we performed calcium mobilization experiments. The 25 bitter taste receptors, G protein chimera (Gα16-gus44), and the GCaMP calcium sensor[68] were transiently expressed in HEK293E cells. Twelve olive oil phenolic compounds (Fig. 1) were tested for bitter taster receptor activation (Fig. 3). […] Ligstroside aglycon, and Oleuropein aglycon activated TAS2R1, TAS2R8 and TAS2R14 receptors. To validate the single dose scanning results, we performed concentration–response experiments for all the compounds toward receptors TAS2R1, TAS2R8, and TAS2R14 that produced the most significant responses (Fig. 4).
Figure 3 Phenolic compound bitter taste activity tests on hTAS2Rs. Relative fluorescence signals caused by phenolic compound activation of the receptors and the empty vector as a negative control. The concentration of the compounds used was [300 µM], except for Ligstroside aglycon and Oleuropein aglycon [200 µM], oleuropein that was [3 mM]. The asterisks indicate significant differences tested by one-way ANOVA (***p < 0.0001) (N = 2). Data represent mean ± SD.

The target in a further assay is T2, TAS2R8 (Homo sapiens, UniProt Q9NYW2).
T2 construct: first 45 amino acids of rat somatostatin type 3 receptor (SSTR3) export tag (N); expressed in transfected cells; host or cells: HEK293E
T2 sequence (Q9NYW2 1-309): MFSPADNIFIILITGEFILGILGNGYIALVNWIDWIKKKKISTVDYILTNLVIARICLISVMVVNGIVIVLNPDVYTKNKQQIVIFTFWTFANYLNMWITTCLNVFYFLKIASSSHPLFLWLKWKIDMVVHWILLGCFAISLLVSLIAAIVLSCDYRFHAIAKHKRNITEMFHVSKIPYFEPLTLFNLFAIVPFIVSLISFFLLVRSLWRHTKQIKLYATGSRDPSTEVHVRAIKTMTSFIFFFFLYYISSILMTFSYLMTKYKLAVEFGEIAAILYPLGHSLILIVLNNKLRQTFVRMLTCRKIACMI
Put plainly: Calcium mobilization functional assay, TAS2R8 co-expressed with Gα16-gust44 and GCaMP in HEK293E cells. Format: cell-based. The following applies: 1 mM, versus empty pcDNA vector. The procedure:
as §1, §2, §3

Another assay deals with T3, TAS2R1 (Homo sapiens, UniProt Q9NYW7).
T3 construct: first 45 amino acids of rat somatostatin type 3 receptor (SSTR3) export tag (N); expressed in transfected cells; host or cells: HEK293E
T3 sequence (Q9NYW7 1-299): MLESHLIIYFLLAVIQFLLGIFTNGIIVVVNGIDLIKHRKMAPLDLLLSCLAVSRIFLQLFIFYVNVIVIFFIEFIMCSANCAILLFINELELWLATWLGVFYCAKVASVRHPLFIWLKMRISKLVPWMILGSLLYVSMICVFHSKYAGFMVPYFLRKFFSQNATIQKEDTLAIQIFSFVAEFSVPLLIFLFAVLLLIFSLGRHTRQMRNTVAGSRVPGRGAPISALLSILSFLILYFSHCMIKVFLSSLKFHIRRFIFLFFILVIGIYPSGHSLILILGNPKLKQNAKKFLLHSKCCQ
Put plainly: Calcium mobilization functional assay, TAS2R1 co-expressed with Gα16-gust44 and GCaMP in HEK293E cells. Format: cell-based. The following applies: 1 mM, versus empty pcDNA vector. The procedure: as §1, §2, §3

The next assay addresses T4, TAS2R41 (Homo sapiens, UniProt P59536).
T4 construct: first 45 amino acids of rat somatostatin type 3 receptor (SSTR3) export tag (N); expressed in transfected cells; host or cells: HEK293E
Put plainly: Calcium mobilization functional assay, TAS2R41. The following applies: 1 mM, versus empty pcDNA vector. Format: cell-based.
Description: as §1, §2

The target in the next assay is T5, TAS2R7 (Homo sapiens, UniProt Q9NYW3).
T5 construct: first 45 amino acids of rat somatostatin type 3 receptor (SSTR3) export tag (N); expressed in transfected cells; host or cells: HEK293E
T5 sequence (Q9NYW3 whole entry): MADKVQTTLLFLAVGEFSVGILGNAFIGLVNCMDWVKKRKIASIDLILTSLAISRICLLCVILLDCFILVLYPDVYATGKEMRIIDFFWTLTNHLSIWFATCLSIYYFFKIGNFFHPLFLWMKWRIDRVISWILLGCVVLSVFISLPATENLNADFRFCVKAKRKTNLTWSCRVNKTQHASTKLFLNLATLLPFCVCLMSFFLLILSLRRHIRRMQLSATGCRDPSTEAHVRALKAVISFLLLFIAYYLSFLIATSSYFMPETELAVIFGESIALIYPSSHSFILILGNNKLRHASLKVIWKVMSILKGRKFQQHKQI
The experiment in a line: Calcium mobilization functional assay, TAS2R7. Format: cell-based. The following applies: 10 mM, versus empty pcDNA vector.
Description: as §1, §2

The target of a further assay is T6, TAS2R3 (Homo sapiens, UniProt Q9NYW6).
T6 construct: first 45 amino acids of rat somatostatin type 3 receptor (SSTR3) export tag (N); expressed in transfected cells; host or cells: HEK293E
T6 sequence (Q9NYW6 whole entry): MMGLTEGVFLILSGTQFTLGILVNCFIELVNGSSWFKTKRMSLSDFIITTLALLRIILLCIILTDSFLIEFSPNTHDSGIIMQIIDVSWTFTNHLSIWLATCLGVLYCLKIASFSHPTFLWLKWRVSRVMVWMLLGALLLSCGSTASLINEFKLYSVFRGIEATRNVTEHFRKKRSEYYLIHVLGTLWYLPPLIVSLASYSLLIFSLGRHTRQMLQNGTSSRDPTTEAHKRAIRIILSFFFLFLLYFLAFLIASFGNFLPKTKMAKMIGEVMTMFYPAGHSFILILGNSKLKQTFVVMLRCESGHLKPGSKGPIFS
Put plainly: Calcium mobilization functional assay, TAS2R3. The format is cell-based. The following applies: 10 mM, versus empty pcDNA vector.
Description: as §1, §2

Another assay addresses T7, TAS2R10 (Homo sapiens, UniProt Q9NYW0).
T7 construct: first 45 amino acids of rat somatostatin type 3 receptor (SSTR3) export tag (N); expressed in transfected cells; host or cells: HEK293E
Put plainly: Calcium mobilization functional assay, TAS2R10. The format is cell-based. The note with it: 30 µM, versus empty pcDNA vector.
Description: as §1, §2

Another assay has as its target T8, TAS2R13 (Homo sapiens, UniProt Q9NYV9).
T8 construct: first 45 amino acids of rat somatostatin type 3 receptor (SSTR3) export tag (N); expressed in transfected cells; host or cells: HEK293E
The experiment in a line: Calcium mobilization functional assay, TAS2R13. Format: cell-based. The following applies: 10 mM, versus empty pcDNA vector.
Description: as §1, §2

A further assay deals with T9, TAS2R9 (Homo sapiens, UniProt Q9NYW1).
T9 construct: first 45 amino acids of rat somatostatin type 3 receptor (SSTR3) export tag (N); expressed in transfected cells; host or cells: HEK293E
T9 sequence (Q9NYW1 whole entry): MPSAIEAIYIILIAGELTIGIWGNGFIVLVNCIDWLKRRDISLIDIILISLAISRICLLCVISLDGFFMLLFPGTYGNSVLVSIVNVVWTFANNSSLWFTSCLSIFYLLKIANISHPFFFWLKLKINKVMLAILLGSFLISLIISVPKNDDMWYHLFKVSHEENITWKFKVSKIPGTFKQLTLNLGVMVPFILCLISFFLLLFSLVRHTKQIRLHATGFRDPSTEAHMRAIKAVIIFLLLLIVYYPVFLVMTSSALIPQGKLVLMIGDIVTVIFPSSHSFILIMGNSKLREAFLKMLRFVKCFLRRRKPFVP
The experiment in a line: Calcium mobilization functional assay, TAS2R9. The format is cell-based. The note with it: 20 mM, versus empty pcDNA vector.
Description: as §1, §2

The target of another assay is T10, TAS2R16 (Homo sapiens, UniProt Q9NYV7).
T10 construct: first 45 amino acids of rat somatostatin type 3 receptor (SSTR3) export tag (N); expressed in transfected cells; host or cells: HEK293E
T10 sequence (Q9NYV7 whole entry): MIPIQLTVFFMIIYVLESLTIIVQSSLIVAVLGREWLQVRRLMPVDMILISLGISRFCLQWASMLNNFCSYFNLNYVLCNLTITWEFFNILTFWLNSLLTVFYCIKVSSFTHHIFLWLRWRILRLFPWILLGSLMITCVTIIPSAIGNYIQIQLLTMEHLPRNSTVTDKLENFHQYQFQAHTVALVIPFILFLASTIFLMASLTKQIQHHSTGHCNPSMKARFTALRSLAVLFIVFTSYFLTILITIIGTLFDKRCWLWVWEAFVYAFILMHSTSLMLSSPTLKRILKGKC
The experiment in a line: Calcium mobilization functional assay, TAS2R16. The format is cell-based. The following applies: 10 mM, versus empty pcDNA vector.
Description: as §1, §2

Molecules are shown by their SMILES. “Also recorded” adds a separate entry of the source.

T4 sequence (P59536 whole entry): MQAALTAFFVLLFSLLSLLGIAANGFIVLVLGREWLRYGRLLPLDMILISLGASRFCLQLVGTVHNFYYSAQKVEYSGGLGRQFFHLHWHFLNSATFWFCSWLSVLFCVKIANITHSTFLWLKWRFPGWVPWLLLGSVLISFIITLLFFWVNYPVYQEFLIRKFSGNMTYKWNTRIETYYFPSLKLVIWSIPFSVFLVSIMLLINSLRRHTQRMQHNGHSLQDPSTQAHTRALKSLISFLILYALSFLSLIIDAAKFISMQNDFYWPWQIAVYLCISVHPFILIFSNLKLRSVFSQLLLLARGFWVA
T8 sequence (Q9NYV9 whole entry): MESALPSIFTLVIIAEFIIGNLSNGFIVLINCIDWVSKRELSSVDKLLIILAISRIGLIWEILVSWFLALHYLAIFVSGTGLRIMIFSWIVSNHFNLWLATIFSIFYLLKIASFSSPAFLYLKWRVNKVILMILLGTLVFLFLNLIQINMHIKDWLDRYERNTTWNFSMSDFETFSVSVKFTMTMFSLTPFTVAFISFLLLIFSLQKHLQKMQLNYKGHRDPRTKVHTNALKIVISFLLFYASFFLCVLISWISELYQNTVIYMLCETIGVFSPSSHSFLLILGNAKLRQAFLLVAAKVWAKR
T7 sequence (Q9NYW0 whole entry): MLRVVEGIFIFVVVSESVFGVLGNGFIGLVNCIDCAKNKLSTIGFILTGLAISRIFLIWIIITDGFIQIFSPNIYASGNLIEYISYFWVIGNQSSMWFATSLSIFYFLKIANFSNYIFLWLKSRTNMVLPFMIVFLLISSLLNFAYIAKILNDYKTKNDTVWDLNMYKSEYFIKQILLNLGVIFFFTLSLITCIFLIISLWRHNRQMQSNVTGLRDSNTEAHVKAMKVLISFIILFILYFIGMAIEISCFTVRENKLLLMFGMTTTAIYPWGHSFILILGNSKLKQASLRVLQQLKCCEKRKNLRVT
T1 sequence (Q9NYW4 whole entry): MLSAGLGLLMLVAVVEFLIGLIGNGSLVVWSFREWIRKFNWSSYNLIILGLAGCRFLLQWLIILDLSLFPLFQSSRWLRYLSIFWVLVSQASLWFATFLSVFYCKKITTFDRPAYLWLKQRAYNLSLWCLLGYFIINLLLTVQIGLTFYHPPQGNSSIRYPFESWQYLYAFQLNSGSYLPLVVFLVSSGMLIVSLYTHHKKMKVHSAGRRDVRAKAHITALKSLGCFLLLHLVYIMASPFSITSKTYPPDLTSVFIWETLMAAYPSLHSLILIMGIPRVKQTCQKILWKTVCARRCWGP

`c1cnc2c(c1)ccc1cccnc12` [1,10-phenanthroline]: the “activation of TAS2R5” value on TAS2R5 is given as “activated”.

Turning to `C/C=C(/C=O)[C@@H](CC=O)CC(=O)OCCc1ccc(O)cc1` [Oleocanthal, oleocanthal], the “activation of TRPA1 receptor/channels” value in the assay on TRPA1 receptor/channels is recorded as “activates”. For the same compound, the entries for the “activation of any TAS2R” value in the assay on 25 human TAS2Rs and with 25 human TAS2Rs (listed as oleocanthal) were “did not activate any TAS2Rs” and “did not show any activation of bitter receptors; also recorded: failed to activate any TAS2Rs”, respectively. `O=C(N[C@H](CO)[C@H](O)c1ccc([N+](=O)[O-])cc1)C(Cl)Cl` [chloramphenicol, reference compound]: the “activation of TAS2R8” value at TAS2R8 is reported as “activated”. Besides, at TAS2R1, the “activation of TAS2R1” value was “activated”. The “activation of TAS2R41” value at TAS2R41 is listed as “activated”. Regarding `CCN(CC)CCCC(C)Nc1ccnc2cc(Cl)ccc12` (stereo not shown) [chloroquine], on TAS2R7, the “activation of TAS2R7” value is on record as “activated”. The “activation of TAS2R3” value on TAS2R3 was “activated”.

As for `CC(=O)OC(C)(C)/C=C/C(=O)[C@](C)(O)[C@H]1[C@H](O)C[C@@]2(C)[C@@H]3CC=C4[C@@H](C=C(O)C(=O)C4(C)C)[C@]3(C)C(=O)C[C@]12C` [cucurbitacin E], the “activation of TAS2R10” value on TAS2R10 is given as “activated”. Consider `CC[N+](C)(CC)CCOC(=O)C(O)(c1ccccc1)C1CCCCC1` (stereo not shown) [oxyphenonium], for which the “activation of TAS2R13” value on TAS2R13 is on record as “activated”. For the compound `CCN(CC)CCNC(=O)c1ccc(N)cc1` [procainamide], the “activation of TAS2R9” value on TAS2R9 is recorded as “activated”. Regarding `OCc1ccccc1O[C@@H]1O[C@H](CO)[C@@H](O)[C@H](O)[C@H]1O` [salicin], the “activation of TAS2R16” value on TAS2R16 was “activated”.

The record behind these values is article PMC8595653, “Activation of specific bitter taste receptors by olive oil phenolics and secoiridoids” (Scientific Reports, 2021).
